As a reminder, the EC50 is the concentration at which the effect is half-maximal. What is called IC50 is the point on the concentration scale where inhibition reaches its midpoint. What is called melting point is the temperature, or range, at which the solid turns liquid. By inhibition is commonly meant the share of the control response that was lost under treatment.

“Also recorded” adds a separate entry of the source. Where two headings read alike, the source gives them in different places. Marks after values point to notes of the source that are not given here. Some results are limits rather than exact numbers.

The values below come from publication PMC9030932, “Development of Dibenzothiazepine Derivatives as Multifunctional Compounds for Neuropathic Pain” (Pharmaceuticals, 2022).

One series has as its system mMOR. Further details: method as in earlier work. To be noted: ref 21 (Gassaway et al.); cited from earlier work.
For series [1], the target named is T1, human μ-opioid receptor (OPRM1) (Homo sapiens, UniProt P35372).
T1 construct: host or cells: HEK293 (constitutive expression)
T1 sequence (P35372 whole entry): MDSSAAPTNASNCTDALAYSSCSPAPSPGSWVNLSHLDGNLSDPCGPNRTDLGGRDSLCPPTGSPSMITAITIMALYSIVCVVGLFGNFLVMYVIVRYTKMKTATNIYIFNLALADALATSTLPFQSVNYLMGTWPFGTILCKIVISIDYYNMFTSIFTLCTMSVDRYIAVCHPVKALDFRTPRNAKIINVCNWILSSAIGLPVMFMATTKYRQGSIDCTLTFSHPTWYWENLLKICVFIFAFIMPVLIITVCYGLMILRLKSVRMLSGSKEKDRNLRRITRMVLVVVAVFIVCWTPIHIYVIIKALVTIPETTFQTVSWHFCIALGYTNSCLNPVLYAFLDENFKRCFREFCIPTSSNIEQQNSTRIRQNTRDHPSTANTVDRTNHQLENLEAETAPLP
The experiment in a line: Intracellular calcium mobilization (FLIPR Tetra), HEK-hMOR agonism. To be noted: for agonistic activity at the μ-opioid receptor: compared to DAMGO. The series is classed as cell-based.

For series [2], the target named is T2, human κ-opioid receptor (OPRK1) (Homo sapiens, UniProt P41145).
T2 construct: host or cells: HEK293 (constitutive expression)
T2 sequence (P41145 whole entry): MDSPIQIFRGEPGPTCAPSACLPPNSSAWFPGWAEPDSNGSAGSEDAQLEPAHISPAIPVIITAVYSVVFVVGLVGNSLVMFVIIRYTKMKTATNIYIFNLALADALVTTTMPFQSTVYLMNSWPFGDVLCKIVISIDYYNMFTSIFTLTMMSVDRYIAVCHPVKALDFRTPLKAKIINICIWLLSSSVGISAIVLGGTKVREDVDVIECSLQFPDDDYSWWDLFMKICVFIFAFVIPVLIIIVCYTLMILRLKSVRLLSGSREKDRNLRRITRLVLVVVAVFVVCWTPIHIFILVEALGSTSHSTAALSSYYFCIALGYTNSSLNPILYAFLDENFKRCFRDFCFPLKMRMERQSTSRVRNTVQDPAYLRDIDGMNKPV
The series can be described thus: Intracellular calcium mobilization (FLIPR Tetra), HEK-hKOR agonism. The series is classed as cell-based. Particulars: for agonistic activity at the κ-opioid receptor: HEK-hKOR calcium mobilization; for activation at 10 µM: read-out: % Stimulation at 10 μM, OPRK1 Agonism against DynorphinA (370 nM). On the procedure: Intracellular calcium mobilization was measured by using FLIPR Tetra System (Molecular Devices, Sunnyvale, CA, USA) in accordance with manufacturer’s instruction. […] Subsequently, the plate was transferred to the FLIPR tetra system for treating 50 μL of the 5× compounds diluted in loading buffer and reading intracellular calcium mobilization. The final concentration of DMSO was 0.1%. […] A dose response curve was generated with the changes in Relative Fluorescence Units (∆RFU) versus Log10 dose.
Experimental details for Biology
Cell culture. HEK293 cells stably expressing human DA transporter (HEK-hDAT), human NE transporter (HEK-hNET) and human serotonin transporter (HEK-hSERT) were kindly provided by Professor Bryan Roth (University of North Carolina at Chapel Hill). And HEK293 cells constitutively expressing human κ- or μ- opioid receptor (HEK-hKOR_NM000912 or HEK-hMOR_NM000914) were constructed by Professor Ki Duk Park (in Korea Institute of Science […]
Europins DiscoveRx (Fremont, CA, USA). Cells were mainta ined in Dulbecco's modified Eagle's medium (HyClone, Logan, UT, USA) supplemented with 10%(v/v) fetal bovine serum (FBS, HyClone, Logan, UT, USA), penicillin (100 U/mL), and streptomycin (100 μg/mL) in the […]
for HEK-hDAT, HEK-hNET, HEK-hSERT, HEK-hKOR and HEK-hMOR respectively) in a humidified 5% CO2 incubator at 37 °C. In case of both HEK-hKOR and HEK-hMOR, cells were additionally maintained in 0.2 mg/mL hygromycin B, 1 μg/mL puromycin B, 1× non-essential amino acids. The cells were subcultured every 3-4 days. […]
(In general: A change in cytosolic calcium serves as a functional read-out for many receptors and channels.)

Another series concerns hMOR. Further details: method as in earlier work. To be noted: ref 21 (Gassaway et al.); cited from earlier work.
A further series deals with T3, hOPRM1 receptor (Homo sapiens, UniProt P35372).
T3 construct: host or cells: CHO-K1
T3 sequence (P35372 whole entry): as the sequence (P35372 whole entry) above
The experiment in a line: PathHunter CHO-K1 OPRM1 β-arrestin recruitment assay. The series is classed as cell-based.

The test system of series [3] is spinal-nerve-ligated neuropathic pain rats. The series can be described thus: Spinal nerve ligation (SNL) neuropathic pain model, von Frey paw withdrawal threshold, intrathecal. The series is classed as in vivo, rat. To be noted: for maximum possible effect (MPE): highest dose (12: 100 μg; 17: 30 μg); for effect on paw withdrawal threshold (PWT) / allodynia: vs vehicle. How it is done: Adult male Sprague-Dawley rats weighing 150–180 g each were used. The animals were housed in a room with a constant temperature of 22–23 °C and an alternating 12-h light/dark cycle, with unrestricted access to food and water. Implantation of intrathecal catheters was performed for drug administration under sevoflurane anesthesia, as described previously. Seven days of recovery were allowed after surgery before the use of catheterized rats in the experiments. Spinal nerve-ligated neuropathic pain was induced by tightly ligating the left L5 and L6 spinal nerves, as described previously. Only rats showing allodynia after either spinal nerve ligation (withdrawal threshold < 4 g) were studied. The von Frey test was used to determine the 50% probability paw withdrawal threshold (PWT), using the up and down method, in which a positive response was defined as brisk withdrawal or paw flinching during or immediately after application of a filament. On experimentation days (12 days after SNL), rats were acclimatized in a box with a wire mesh floor for at least 20 min before being randomly allocated to one of the experimental groups. All experiments were carried out by an observer who was blind to the treatments. To investigate the effects of 12 (30 or 100 μg) and 17 (10 or 30 μg), it was supplied intrathecally following post-injury baseline PWT determination in rats with either spinal nerve-ligated neuropathic pain. Withdrawal thresholds were determined at 15, 30, 60, 90, 120, 150, and 180 min after intrathecal administration.
All data are expressed as means ± SEM. The time-response data are presented as the withdrawal threshold in grams. The dose-response data are presented as a percentage of the maximum possible effect (%MPE): %MPE = ((post-drug threshold−post-injury baseline threshold)/(cutoff threshold−post-injury baseline threshold)) × 100. Time and dose-response data were analyzed by a one-way and two-way repeated measures analysis of variance (ANOVA), with a Bonferroni’s post hoc test. A p-value < 0.05 was considered statistically significant.

The target in series [4] is human dopamine transporter (hDAT) (Homo sapiens, UniProt Q01959). The experiment in a line: Neurotransmitter transporter uptake assay, HEK-hDAT. The series is classed as cell-based.
human dopamine transporter (hDAT), sequence (Q01959 whole entry): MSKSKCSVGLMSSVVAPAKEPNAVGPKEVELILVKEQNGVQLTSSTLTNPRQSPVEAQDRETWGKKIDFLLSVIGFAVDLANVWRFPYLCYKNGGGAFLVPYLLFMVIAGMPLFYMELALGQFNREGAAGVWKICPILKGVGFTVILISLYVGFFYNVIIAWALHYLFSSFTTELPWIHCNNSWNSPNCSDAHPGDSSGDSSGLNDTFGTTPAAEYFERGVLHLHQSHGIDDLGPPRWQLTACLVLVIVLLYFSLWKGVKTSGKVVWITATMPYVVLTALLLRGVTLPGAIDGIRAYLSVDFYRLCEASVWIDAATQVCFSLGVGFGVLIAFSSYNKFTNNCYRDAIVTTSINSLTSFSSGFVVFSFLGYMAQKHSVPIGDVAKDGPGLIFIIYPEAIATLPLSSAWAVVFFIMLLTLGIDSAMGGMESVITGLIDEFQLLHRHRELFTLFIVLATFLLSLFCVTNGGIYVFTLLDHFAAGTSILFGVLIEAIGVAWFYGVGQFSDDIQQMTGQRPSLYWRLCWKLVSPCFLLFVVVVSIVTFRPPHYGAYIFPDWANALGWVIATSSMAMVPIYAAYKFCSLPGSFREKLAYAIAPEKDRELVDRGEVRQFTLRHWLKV
A short description of series [5]: In vitro metabolic stability, human. Format: in vitro ADME. To be noted: for in vitro metabolic stability: S9 microsomal fraction, 30 min, Table S1; for recovery at 30 min, 1 µM: human, pH 7.4, % remaining after 30 min incubation with S9 microsomal fraction. How it is done:
(§1) Experimental details for Biology […]
(§2) Microsomal stability. The metabolic stability of compounds was evaluated in rat liver microsomes (RLM). Microsomes (0.5 mg/ml) and test compound (1 µM) in 100 mM potassium phosphate buffer (pH 7.4) were preincubated with shaking (100 rpm) for 5 min at 37 °C. The metabolic reaction was initiated by the addition of an NADPH generating system (60 mM potassium phosphate buffer pH 7.4, 1.3 mM NADP, 3.3 mM glucose-6-phosphate, 0.3 µL glucose-6-phosphate dehydrogenase (0.4 U/mL), and 3.3 mM magnesium chloride) and incubated at 37 °C. Aliquots of 100 µL were withdrawn at 0, 10, 20, 30 and 60 min, and 2 volumes of ice-cold acetonitrile (ACN) were added to terminate the reaction. After mixing by vortex and centrifugation (14000 rpm) for 15 min at 4 °C, the supernatant was transferred to liquid chromatography vials and analyzed by an LC-MS/MS system.
(§3) Table S1. In vitro metabolic stability of selected compounds.
(§4) Compounds Human Rat Mouse […]
(§5) a% remaining after 30 min incubation with S9 microsomal fraction.

A short description of series [6]: In vitro metabolic stability, rat. The series is classed as in vitro ADME. To be noted: pH 7.4, % remaining after 30 min incubation with S9 microsomal fraction. On the procedure: as §1, §2, §3, §4, §5
The subject of the next series is rats. The experiment in a line: Behavioral responses: motor functions (righting, placing/stepping reflexes), pinna and corneal reflexes after intrathecal administration. Format: in vivo, rat. To be noted: highest doses, examined for 3 h. How it is done: Motor functions were assessed by examining righting and placing/stepping reflexes. […] The […] was evoked by the rat drawing the dorsum of either hind paw across the edge of a table. Normally, rats attempt to place a paw into a position that enables walking. The pinna and corneal reflexes were evoked by stimulating the ear canal or cornea, respectively, with a string. Normally, rats spontaneously shake their heads or blink. Normality of behavior was classified as present or absent. To evaluate the behavioral changes induced by compounds 12 and 17, additional rats were examined for 3 h after intrathecal administration of the highest doses of the agents used. The motor function and pinna and corneal reflexes were normal after intrathecal administration of compounds 12 and 17 at the highest doses. Overt abnormal behavioral changes were not observed.

The target in series [7] is human norepinephrine transporter (hNET) (Homo sapiens, UniProt P23975). The series can be described thus: Neurotransmitter transporter uptake assay, HEK-hNET. Format: cell-based.
human norepinephrine transporter (hNET), sequence (P23975 whole entry): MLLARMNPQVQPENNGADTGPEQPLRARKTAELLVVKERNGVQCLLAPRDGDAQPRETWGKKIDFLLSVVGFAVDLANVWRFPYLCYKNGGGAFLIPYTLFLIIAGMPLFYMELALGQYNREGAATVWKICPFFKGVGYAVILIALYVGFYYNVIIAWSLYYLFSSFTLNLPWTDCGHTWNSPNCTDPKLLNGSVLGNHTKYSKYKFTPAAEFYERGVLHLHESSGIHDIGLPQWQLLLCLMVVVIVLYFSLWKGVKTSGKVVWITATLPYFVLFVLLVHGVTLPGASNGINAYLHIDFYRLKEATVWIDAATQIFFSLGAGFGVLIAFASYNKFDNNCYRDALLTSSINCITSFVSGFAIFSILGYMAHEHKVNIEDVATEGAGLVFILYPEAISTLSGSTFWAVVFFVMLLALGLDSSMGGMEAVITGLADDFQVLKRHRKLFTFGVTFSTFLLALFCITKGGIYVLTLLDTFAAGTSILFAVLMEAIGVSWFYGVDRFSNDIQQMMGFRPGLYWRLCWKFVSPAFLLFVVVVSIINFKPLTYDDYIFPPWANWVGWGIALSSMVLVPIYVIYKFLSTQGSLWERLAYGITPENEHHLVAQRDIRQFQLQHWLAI
Series [8] is described as follows: In vitro metabolic stability, mouse. Format: in vitro ADME. Particulars: pH 7.4, % remaining after 30 min incubation with S9 microsomal fraction. On the procedure: as §1, §2, §3, §4, §5
In series [9] the target is human serotonin transporter (hSERT) (Homo sapiens, UniProt P31645). The experiment in a line: Neurotransmitter transporter uptake assay, HEK-hSERT. Format: cell-based.
human serotonin transporter (hSERT), sequence (P31645 whole entry): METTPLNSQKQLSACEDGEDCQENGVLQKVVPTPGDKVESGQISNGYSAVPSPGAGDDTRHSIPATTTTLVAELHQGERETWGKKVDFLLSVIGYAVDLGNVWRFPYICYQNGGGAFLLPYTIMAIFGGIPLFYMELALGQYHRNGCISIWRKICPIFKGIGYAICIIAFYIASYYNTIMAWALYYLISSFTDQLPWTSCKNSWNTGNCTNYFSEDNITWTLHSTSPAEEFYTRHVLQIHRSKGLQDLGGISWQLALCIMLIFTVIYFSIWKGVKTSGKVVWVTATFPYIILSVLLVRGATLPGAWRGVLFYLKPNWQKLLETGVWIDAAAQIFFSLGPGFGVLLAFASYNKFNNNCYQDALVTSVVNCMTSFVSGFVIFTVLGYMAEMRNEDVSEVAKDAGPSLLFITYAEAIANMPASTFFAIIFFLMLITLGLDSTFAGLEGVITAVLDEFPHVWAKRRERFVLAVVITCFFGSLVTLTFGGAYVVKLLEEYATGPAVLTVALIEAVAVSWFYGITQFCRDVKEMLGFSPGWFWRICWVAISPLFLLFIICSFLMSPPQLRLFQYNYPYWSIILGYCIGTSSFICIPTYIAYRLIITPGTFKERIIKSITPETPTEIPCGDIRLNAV

Take `CN1c2ccccc2C(NCCCCCCC(=O)O)c2ccc(Cl)cc2S1(=O)=O` (centres unmarked) [Tianeptine, reference compound]: the EC50 was 641 nM in the series on mMOR, 194 nM in the series on hMOR and > 5000 nM on hOPRM1 receptor. In addition, the “% Stimulation at 10 μM, OPRM1 Agonism against DAMGO (3.9 μM)” value in [1] (10 μM, HEK-hMOR calcium mobilization, normalized to Emax of DAMGO at 3.9 μM) is <10% ^b. Also, in [1] (HEK-hMOR calcium mobilization), the “agonistic activity at the μ-opioid receptor” value is recorded as “did not show appreciable biological activities”. Moreover, the “agonistic activity at the κ-opioid receptor” value in series [2] is reported as “did not show appreciable biological activities”. The activation at 10 µM in [2] is < 10%.
In the case of `CN1c2ccccc2C(NCCCCCCC(=O)NCCc2c[nH]c3ccc(O)cc23)c2ccc(Cl)cc2S1(=O)=O` (centres unmarked) [Compound 12, 7-((3-chloro-6-methyl-5,5-dioxido-6,11-dihydrodibenzo[c,f][1,2]thiazepin-11-yl)amino)-N-(2-(5-hydroxy-1H-indol-3-yl)ethyl)heptanamide], the melting point lay in the range of 92 to 95 °C. Also, in series [3], the “maximum possible effect (MPE)” value is given as 73% and the “effect on paw withdrawal threshold (PWT) / allodynia” value is “dose-dependent increase in the withdrawal threshold; also recorded: increased the paw withdrawal threshold (PWT) compared to the vehicle”. Besides, 9660 ± 1000 nM corresponded to half-maximal inhibition in [4] (IC50). Further, in [1], the EC50 turned out to be 1200 ± 244 nM. Also, the “agonistic activity at the μ-opioid receptor” value in [1] (HEK-hMOR calcium mobilization) was “partial agonisms”. In [5], the “in vitro metabolic stability” value is “extremely low” and the recovery at 30 min, 1 µM was 5%. Moreover, the recovery at 30 min, 1 µM in series [6] turned out to be 6%. In addition, the “motor function and pinna and corneal reflexes” value with rats is given as “normal”. Besides, in series [2], the “agonistic activity at the κ-opioid receptor” value is on record as “did not show agonistic activities” and the activation at 10 µM was < 10%. The inhibition at 10 µM in [7] (10 μM, HEK-hNET, mean ± SEM, n = 3–6, read-out: % Inhibition at 10 μM hNET) came out at 30.1 ± 0.87%. Further, at hOPRM1 receptor, the concentration giving a half-maximal response (EC50) came to 134 ± 12 nM. Further, the recovery at 30 min, 1 µM in series [8] was 5%. In series [9], this compound yielded an IC50 of 258 ± 57 nM.
Turning to `CN1c2ccccc2C(NCCCCCCCNCCc2c[nH]c3ccc(O)cc23)c2ccc(Cl)cc2S1(=O)=O` (centres unmarked) [Compound 17, 3-chloro-11-((7-((2-(5-hydroxy-1H-indol-3-yl)ethyl)amino)heptyl)amino)-6-methyl-6,11-dihydrodibenzo[c,f][1,2]thiazepine 5,5-dioxide], in series [3], the “maximum possible effect (MPE)” value stood at 83%. For the same compound, the “effect on paw withdrawal threshold (PWT) / allodynia” value in series [3] was “increased mechanical withdrawal threshold compared to vehicle; also recorded: significantly reduced allodynia; also recorded: increased the PWT; also recorded: showed antiallodynic effects at the spinal level”. In addition, the IC50 in series [4] was determined as 2010 ± 650 nM; in series [7], 154 ± 7 nM; in series [9] (HEK-hSERT, neurotransmitter uptake, mean ± SEM, n = 3–6, read-out: IC50 hSERT), 70 ± 9 nM. Besides, the EC50 in series [1] amounted to 384 ± 25 nM; on hOPRM1 receptor it was 1560 ± 195 nM. Further, the “fold increase in Ca2+ efflux in HEK-hMOR” value in series [1] (HEK-hMOR) is on record as 5.9 fold. The “agonistic activity at the μ-opioid receptor” value in [1] (HEK-hMOR calcium mobilization) was “partial agonisms”. Besides, in series [5], the “in vitro metabolic stability” value is recorded as “extremely low”. In addition, the recovery at 30 min, 1 µM in series [5] worked out at 0%; in series [6], 1%; in series [8], 1%. In addition, the “motor function and pinna and corneal reflexes” value in the series on rats is given as “normal”. The “agonistic activity at the κ-opioid receptor” value in [2] was “no influence; also recorded: did not show agonistic activities”. In series [2], the activation at 10 µM was < 10%. Besides, the “β-arrestin recruitment” value on hOPRM1 receptor (CHO-K1 OPRM1) is recorded as “lower levels of β-arrestin recruitment than compound 12”. The “fold higher hSERT inhibitory activity than compound 12” value in series [9] (IC50 ratio vs compound 12) amounted to 3 fold.
